From US20240181000A1, “LGG-DERIVED PEPTIDES AND METHODS OF USE THEREOF” (Ohio State Innovation Foundation, priority 2021, published 2024) come the findings set out here.

No end group written: not given here.

Test [1] has as its system APEC. The experiment in a line: Kinetic time-inhibition assay of synthesized peptides. Type of test: cell-based, E. coli. Conditions: 12 mM, 12 h. The procedure:
Peptides were added to the APEC suspension in a 96-well plate, and plate was incubated in TECAN Sunrise™ absorbance microplate reader at 37° C. with OD600 measurement set at every 30 min for 12 hr. The sequences in FIG. 7 are […] (SEQ ID NO: 5), […] (SEQ ID NO: 18), […] (SEQ ID NO: 21), […] (SEQ ID NO: 26), and […] (SEQ ID NO: 32).
The five common highly abundant peptides in CFSs of both L. rhamnosus GG and B. lactis Bb12 ([…] (SEQ ID NO:5), […] (SEQ ID NO:18), […] (SEQ ID NO:21), […] (SEQ ID NO:26) and […] (SEQ ID NO:32)) were synthesized (GenScript, NJ, USA) and tested for anti-APEC activity by conducting kinetic time-inhibition assay as described previously. Briefly, peptides dissolved in dimethyl sulfoxide (DMSO) at 200 mM concentrations were added (12 mM; final concentration of 6% DMSO) to APEC suspension (10^5 CFU/mL; LB media) in a 96-well plate. The plate was then incubated in TECAN Sunrise™ absorbance microplate reader (NC, USA) at 37° C. with OD600 measurement set at every 30 mins for 12 h. Untreated APEC (0% DMSO) and APEC treated with 6% DMSO were included as controls. […] Three independent experiments were conducted.

In test [2] the test system is APEC O78. Type of test: cell-based, E. coli. The procedure:
Anti-APEC activity determination: The anti-APEC activity of peptides was determined in LB broth following CLSI guidelines. Briefly, overnight grown APEC O78 was adjusted to 5×10^5 CFU/mL concentration in fresh LB media. One-hundred microliters of APEC suspension was aliquoted into the wells of the 96-well plate. Peptides were added to the wells at 6 mM and 12 mM concentrations and incubated at 37° C. in TECAN Sunrise™ absorbance microplate reader with kinetic absorbance measurement set at every 30 mins for 12 h. Sterile media and DMSO (solvent) were used as controls. The growth inhibitory activity of the peptides against APEC was calculated using the formula: (OD600 DMSO treated well−OD600 peptide treated well)/OD600 DMSO treated well×100%.
The minimum inhibitory concentration (MIC) was determined for selected peptides (P1, P2, P3, and P4) using similar assay as above. Peptides were added to the wells of the 96-well plate at 6 mM, 9 mM, 12 mM, 15 mM, and 18 mM concentrations. The peptide concentration at which there is no visible APEC growth (no OD increase) was determined as MIC. Two independent experiments were conducted.
Arginine and lysine substituted peptide analogues: The non-essential amino acid residues identified in each peptide were substituted with arginine/lysine to test whether these substitutions enhance the anti-APEC activity of peptides. The MICs of arginine and lysine substituted peptide analogues ([…] (SEQ ID NO:37), […] (SEQ ID NO:38), […] (SEQ ID NO:39), KDENK (SEQ ID NO:41), PDEKK (SEQ ID NO:42), KDEKK (SEQ ID NO:43), KHTAPK (SEQ ID NO:45), VKTAPK (SEQ ID NO:46), VHTKPK (SEQ ID NO:47), and KKTKPK (SEQ ID NO:48)) were determined as above and compared with original peptides.

In test [3] the test system is Salmonella enterica subsp. enterica serovar Enteritidis (SE). Type of test: cell-based. Conditions: subsp. enterica serovar Enteritidis (SE). As for the experimental part: MIC was determined by selecting peptide concentration at which there is no increased growth (no increase in OD), given indication of no ST growth. An independent repeat experiment was conducted.
Heat and protease tolerance of peptides: P1, P2, and P4 were heated for 6 minutes at 86° C. or treated with protease proteinase K, 200 μg/mL at 50° C. for 30 minutes. After which, the treated and/or heated peptides at their respective MICs were evaluated in the inhibition assay with Salmonella. The protocol from above was repeated in the Tecan with the same controls.
To analyze the perceived efficacy of arginine and lysine substitutes reported in previous studies, specific amino acid residues in P1 and P2 were replaced with lysine or arginine to test if the alliterations enhanced anti-Salmonella (ST and SE) activity. The MICs of the arginine or lysine substituted peptides ([…] (SEQ ID NO:37), […] (SEQ ID NO:38), […] (SEQ ID NO:39), KDENK (SEQ ID NO:41), PDEKK (SEQ ID NO:42), KDEKK (SEQ ID NO:43), KHTAPK (SEQ ID NO:45)) were determined as described early. Two independent experiments were conducted to ensure accuracy.

Test [4] concerns multiple APEC serotypes. Type of test: cell-based, E. coli. As for the experimental part:
Anti-APEC spectrum determination: Peptides (P1, P2, and P3) were tested against multiple APEC serotypes/strains to determine their spectrum of activity. Peptides were added at their MICs and the growth inhibitory activity of the peptides was determined as described above.

With AESSDTNLVNAKAA [PN-2], in test [1], the “Inhibition of APEC growth” value is given as “slightly inhibitory”.

For the substance AFDNTDTSLDSTFKSA [PN-4], the “Inhibition of APEC growth” value in test [1] was “completely inhibitory”.

On to FSAVALSAVALSKPGHVNA [PN-1], for which the “Inhibition of APEC growth” value in test [1] is recorded as “did not affect the APEC growth”.

The term MIC denotes the lowest concentration found to suppress growth. Lower therefore signals greater potency. With KDEKK [KDEKK], the “MIC” value in test [2] is 12 mM.

KDENK [KDENK]: in test [2], the “MIC” value amounted to 9 mM.

Take KHTAPK [KHTAPK]: the “MIC” value in test [2] was more than 18 mM.

Regarding KKTKPK [KKTKPK], in test [2], the “MIC” value is reported as more than 18 mM.

In the case of NPRRQERR, the “MIC” value in test [2] came to 12 mM.

For the substance NPRRQRRR, the “MIC against SE” value in test [3] is given as more than 18 mM.

Take NPRRRERR: the “MIC” value in test [2] came out at 12 mM.

On to NPSRRERR, for which the “MIC” value in test [2] is recorded as 15 mM.

On to PDEKK [PDEKK], for which the “MIC against SE” value in test [3] came to 12 mM. For the same substance, the minimum inhibitory concentration (MIC) in test [2] worked out at 9 mM.

In general, MIC50 refers to an inhibitory concentration at the 50% level, which refers to growth in some studies and to a panel of isolates in others. A low value points to greater potency. As to VHTAPK [Peptide P3, VHTAPK], the “Growth inhibition against APEC serotypes” value in test [4] is 39.4-88.4%. In test [2], the “MIC” value came out at 18 mM and the “MIC50” value was 16.2 mM.

On to VHTKPK [VHTKPK], for which the minimal inhibitory concentration (MIC) in test [2] was more than 18 mM.

In the case of VKTAPK [VKTAPK], the “MIC” value in test [2] is reported as more than 18 mM.
